{"source": "patent US8486634B2", "about": "“Amplifying bisulfite-treated template” (Ambergen, Inc., priority 2007, dated 2013)", "biological_target": "T1, protein kinase Cα (PKCα) (Homo sapiens, UniProt P17252)", "T1 construct": "isolate and photo-release endogenous PKCα from the undiluted detergent fractionated HeLa cell extracts; endogenous in cells; host or cells: HeLa cells (ATCC)", "assay": "Phorbol ester (PMA) mediated PKCα sub-cellular translocation, measured by kinase activity after isolation with photocleavable antibodies", "assay_type": "cell-based", "details": "cultured HeLa cells stimulated with 200 nM PMA for 5 min, detergent-fractionated, relative distribution based on kinase activity, n=4", "method": "FIG. 20. Phorbol ester (PMA) mediated protein kinase Cα (PKCα) sub-cellular translocation as measured by functional activity following isolation with photocleavable antibodies. Cultured HeLa cells were stimulated with 200 nM PMA for 5 min and detergent fractionated into the cytosol and membrane compartments prior to isolation and purification with the photocleavable antibodies.\nCultured HeLa cells (ATCC; Manassas, Va.) were stimulated for 5 min with 200 nM Phorbol-12-Myristate-13-Acetate (PMA; EMD Biosciences, Inc., San Diego, Calif.) and subsequently detergent fractionated into sub-cellular compartments according to reported procedures [Ramsby et al. (1994) Electrophoresis 15, 265-277; Ramsby & Makowski. (1999) Methods Mol Biol 112, 53-66; Chiang et al. (2000) J Biochem Biophys Methods 46, 53-68]. PMA is a potent activator of PKCα and is well known to cause translocation of the kinase from the cytosolic to the membrane sub-cellular compartments [Ross & Joyner. (1997) Endothelium 5, 321-332; Bazan & Rapoport. (1996) J Pharmacol Toxicol Methods 36, 87-95; Yazlovitskaya & Melnykovych. (1995) Cancer Lett 88, 179-183]. […]", "data": [{"smiles": "CCCCCCCCCCCCCC(=O)O[C@@H]1[C@@H](C)[C@@]2(O)[C@@H](C=C(CO)C[C@]3(O)C(=O)C(C)=C[C@@H]23)[C@@H]2C(C)(C)[C@]12OC(C)=O", "note": "[PMA, Phorbol-12-Myristate-13-Acetate]", "values": [{"measurement": "PKCα distribution, membrane", "setting": "baseline 21±2% membrane", "result": "84±3", "unit": "%"}, {"measurement": "PKCα distribution, cytosol", "setting": "baseline 79±7% cytosol", "result": "16±4", "unit": "%"}]}]}
